From patent US8975280B2, “Deoxynojirimycin and D-arabinitol analogs and methods of using” (The Chancellor, Masters and Scholars of The University of …, priority 2006, dated 2015) come the findings set out here.

One assay has as its target T1, α-glucosidase II (Rattus norvegicus, UniProt A0A8I6GFL3).
T1 construct: Purified α-glucosidase I and II were purified from rat liver by known methods; from tissue; host or cells: rat liver
Kind of assay: In vitro inhibition of purified α-glucosidase II, (a) and (b) activities, 2-AA-labeled FOS substrates, HPLC. Format: biochemical. The protocol:
(§1) All chromatography was performed at 30° C. The first solvent, solvent A, was acetonitrile and the second solvent, solvent B, was Milli-Q water. […] Samples (<50 μl) were injected in Milli-Q water/acetonitrile (3/7, v/v). All chromatography was controlled, including data collection and processing, using Waters Empower software. Glucose units were determined, following comparison with a 2-AA-labeled glucose oligomer ladder (derived from a partial hydrolysate of dextran) external standard using Peak Time software (developed in-house).
Purified α-glucosidase I and II were purified from rat liver by known methods. […] 2-AA-labeled FOS were isolated and purified as substrates for either α-glucosidase I or II. […] […] […] […] The reactions were stopped by the addition of 30 μl acetonitrile.

Another assay concerns the target T2, α-glucosidase I (Rattus norvegicus, UniProt O88941).
T2 construct: Purified α-glucosidase I and II were purified from rat liver by known methods; from tissue; host or cells: rat liver
T2 sequence (O88941 1-834): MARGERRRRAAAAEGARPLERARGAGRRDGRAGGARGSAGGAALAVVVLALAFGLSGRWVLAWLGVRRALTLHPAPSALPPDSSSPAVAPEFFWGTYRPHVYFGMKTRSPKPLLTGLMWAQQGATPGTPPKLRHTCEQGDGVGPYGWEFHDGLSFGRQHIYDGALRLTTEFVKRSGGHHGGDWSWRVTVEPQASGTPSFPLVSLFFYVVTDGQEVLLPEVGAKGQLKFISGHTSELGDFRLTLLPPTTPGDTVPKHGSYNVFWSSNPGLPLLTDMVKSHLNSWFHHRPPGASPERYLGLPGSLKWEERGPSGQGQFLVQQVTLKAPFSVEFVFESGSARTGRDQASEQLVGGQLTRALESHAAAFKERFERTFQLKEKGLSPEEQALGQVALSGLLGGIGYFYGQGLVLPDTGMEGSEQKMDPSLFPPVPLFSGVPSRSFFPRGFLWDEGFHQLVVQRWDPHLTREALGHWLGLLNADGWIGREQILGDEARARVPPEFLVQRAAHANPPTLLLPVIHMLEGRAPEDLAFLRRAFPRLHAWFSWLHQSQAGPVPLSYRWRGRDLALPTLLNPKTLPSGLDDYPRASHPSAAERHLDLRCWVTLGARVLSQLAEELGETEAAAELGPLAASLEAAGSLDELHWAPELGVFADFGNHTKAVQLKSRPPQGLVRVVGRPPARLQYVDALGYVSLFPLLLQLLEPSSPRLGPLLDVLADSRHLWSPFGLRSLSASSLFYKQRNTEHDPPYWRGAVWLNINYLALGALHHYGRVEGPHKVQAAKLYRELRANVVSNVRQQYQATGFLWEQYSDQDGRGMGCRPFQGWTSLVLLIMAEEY
Kind of assay: In vitro inhibition of purified α-glucosidase I, 2-AA-labeled FOS substrates, HPLC. The assay is classed as biochemical. As for the experimental part: as §1
Purified α-glucosidase I and II were purified from rat liver by known methods. […] 2-AA-labeled FOS were isolated and purified as substrates for either α-glucosidase I or II. Fluorescently-labeled substrates Glc1Man5GlcNAc1 (G1M5N), Glc2Man5GlcNAc1 (G2M5N), Glc3Man5GlcNAc1 (G3M5N) and Glc3Man9GlcNAc, (G3M9N2) were added to separate 1.5 ml centrifuge tubes with varying concentrations of imino sugar and dried under vacuum. […] Similarly, α-glucosidase II was incubated for 2 hours with G2M5N and 20 minutes with G1M5N. […] The reactions were stopped by the addition of 30 μl acetonitrile.

[1] abbreviates: physiologically relevant substrates.

Where two headings read alike, the source gives them in different places.

T1 sequence (A0A8I6ADW9 1-525 partner): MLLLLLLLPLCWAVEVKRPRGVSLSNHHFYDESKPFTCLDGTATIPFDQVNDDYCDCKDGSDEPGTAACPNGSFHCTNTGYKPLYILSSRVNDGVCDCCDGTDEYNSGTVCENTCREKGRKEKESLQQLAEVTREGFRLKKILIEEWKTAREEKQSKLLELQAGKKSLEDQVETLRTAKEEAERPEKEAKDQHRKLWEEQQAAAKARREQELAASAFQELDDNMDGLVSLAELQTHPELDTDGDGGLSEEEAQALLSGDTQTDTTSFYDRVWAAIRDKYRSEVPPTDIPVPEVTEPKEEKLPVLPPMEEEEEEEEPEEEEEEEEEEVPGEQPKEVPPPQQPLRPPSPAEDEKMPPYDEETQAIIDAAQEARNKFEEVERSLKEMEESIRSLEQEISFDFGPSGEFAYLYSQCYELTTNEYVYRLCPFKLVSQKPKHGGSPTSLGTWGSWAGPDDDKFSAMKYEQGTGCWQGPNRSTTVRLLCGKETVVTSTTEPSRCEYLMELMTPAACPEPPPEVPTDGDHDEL

In the case of `[N-]=[N+]=Nc1ccc(NCCCCCCN2C[C@H](O)[C@@H](O)[C@H](O)[C@H]2CO)c([N+](=O)[O-])c1` [NAP-DNJ, N—(N′-{4′azido-2′-nitrophenyl)-6-aminohexyl)-deoxynojirimycin], the IC50 at α-glucosidase II (heptamannose substrate Glc1Man7GlcNAc1, read-out: α-Glucosidase II (b) Glc1Man7GlcNAc1 IC50) was 19200 ± 60 nM; at α-glucosidase II (heptamannose substrate Glc2Man7GlcNAc1, read-out: α-Glucosidase II (a) Glc2Man7GlcNAc1 IC50), 11700 ± 700 nM; on α-glucosidase II (pentamannose substrate Glc1Man5GlcNAc1, read-out: α-Glucosidase II (b) Glc1Man5GlcNAc1 IC50) it was 833 ± 180 nM; on α-glucosidase II (pentamannose substrate Glc2Man5GlcNAc1, read-out: α-Glucosidase II (a) Glc2Man5GlcNAc1 IC50), 300 ± 100 nM; at α-glucosidase I (α-Glucosidase I Glc3Man5GlcNAc1 IC50, pentamannose substrate Glc3Man5GlcNAc1), 17 ± 1 nM; against α-glucosidase I (α-Glucosidase I Glc3Man7GlcNAc1 IC50, heptamannose substrate Glc3Man7GlcNAc1), 37 ± 1 nM. Also, the IC50 on α-glucosidase I (α-Glucosidase I Glc3Man9GlcNAc1 IC50, nonamannose substrate Glc3Man9GlcNAc1) was found to be 22 ± 2 nM. In addition, at α-glucosidase I (heptamannose substrates), the “more potent in inhibiting glucosidase I than glucosidase II (a)” value is “over 300 times”. The “more potent in inhibiting glucosidase I than glucosidase II (b)” value at α-glucosidase I (heptamannose substrates) is reported as “more than 500 times”. Further, the “inhibition of α-glucosidase I improved in comparison to NB-DNJ” value against α-glucosidase I (pentamannose substrate) is reported as 40 fold. The “inhibition better for α-glucosidase I than α-glucosidase II (a)” value against α-glucosidase I (pentamannose substrates) is given as 20 times. The “inhibition better for α-glucosidase I than α-glucosidase II (b)” value against α-glucosidase I (pentamannose substrates) is listed as 50 times. Besides, the “better at inhibiting glucosidase I than glucosidase II (a) and (b) activity” value on α-glucosidase I (setting [1]) is reported as 300-500 times. At α-glucosidase I (setting [1]), the “better than NB-DNJ in inhibiting all triglucosylated structures” value is reported as 25-50 times.

The IC50 is the point on the concentration scale where inhibition reaches its midpoint.
